Data on 26 compounds can be found in patent US10730870B2, “Compounds and methods for the enhanced degradation of targeted proteins” (Arvinas, Inc., priority 2015, dated 2020).

A value given as a limit tells only on which side of the number the result lay.

The target of this experiment is VHL (Homo sapiens (Human), UniProt P40337). As to the kind of experiment: VHL fluorescence polarization (FP) competition assay. Format: binding. On the technique in general: In fluorescence polarisation assays a small probe gives low polarisation when free and higher when bound to something large.

In the case of `CC(=O)N[C@H](C(=O)N1C[C@H](O)C[C@H]1C(=O)NCc1ccc(-c2scnc2C)cc1)C(C)C` [Example 69, (2S,4R)-1-((S)-2-acetamido-3-methylbutanoyl)-4-hydroxy-N-(4-(4-methylthiazol-5-yl)benzyl)pyrrolidine-2-carboxamide], the IC50 (as a rule, the concentration at which inhibition is half-maximal) reads like this: (1% in DMSO) 1.43 µM; (10% in DMSO) 4.28 µM. On the same counts, the results for `Cc1ncsc1-c1ccc(CNC(=O)[C@@H]2C[C@@H](O)CN2C(=O)[C@@H](NC(=O)c2cccc(C#N)c2)C(C)(C)C)cc1` [Example 71, (2S,4R)-1-((S)-2-(3-cyanobenzamido)-3,3-dimethylbutanoyl)-4-hydroxy-N-(4-(4-methylthiazol-5-yl)benzyl)pyrrolidine-2-carboxamide] are 1.62 µM and 1.38 µM. For the compound `COc1ccc2c(c1)CN([C@H](C(=O)N1C[C@H](O)C[C@H]1C(=O)NCc1ccc(-c3scnc3C)cc1)C(C)C)C2=O` [Example 72, (2S,4R)-4-hydroxy-1-((S)-2-(5-methoxy-1-oxoisoindolin-2-yl)-3-methylbutanoyl)-N-(4-(4-methylthiazol-5-yl)benzyl)pyrrolidine-2-carboxamide], the IC50 is, setting by setting: (1% in DMSO) 0.86 µM; (10% in DMSO) 1.03 µM.

Consider `Cc1ncsc1-c1ccc(CNC(=O)[C@@H]2C[C@@H](O)CN2C(=O)[C@H](C(C)C)N2Cc3cc(Cl)ccc3C2=O)cc1` [Example 73, (2S,4R)-1-((S)-2-(5-chloro-1-oxoisoindolin-2-yl)-3-methylbutanoyl)-4-hydroxy-N-(4-(4-methylthiazol-5-yl)benzyl)pyrrolidine-2-carboxamide], for which the IC50 by setting is: (1% in DMSO) 1.33 µM; (10% in DMSO) 1.19 µM.

Regarding `Cc1ncsc1-c1ccc(CNC(=O)[C@@H]2C[C@@H](O)CN2C(=O)[C@H](C(C)C)N2Cc3ccc(Cl)cc3C2=O)cc1` [Example 74, (2S,4R)-1-((S)-2-(6-chloro-1-oxoisoindolin-2-yl)-3-methylbutanoyl)-4-hydroxy-N-(4-(4-methylthiazol-5-yl)benzyl)pyrrolidine-2-carboxamide], the IC50 by setting is: (1% in DMSO) 0.45 µM; (10% in DMSO) 0.264 µM. In turn, `COc1ccc(CCC(=O)N[C@H](C(=O)N2C[C@H](O)C[C@H]2C(=O)NCc2ccc(-c3scnc3C)cc2)C(C)(C)C)cc1` [Example 76, (2S,4R)-4-hydroxy-1-((S)-2-(3-(4-methoxyphenyl)propanamido)-3,3-dimethylbutanoyl)-N-(4-(4-methylthiazol-5-yl)benzyl)pyrrolidine-2-carboxamide] displayed an IC50 (1% in DMSO) of 0.169 µM. Regarding `COc1cccc(CCC(=O)N[C@H](C(=O)N2C[C@H](O)C[C@H]2C(=O)NCc2ccc(-c3scnc3C)cc2)C(C)(C)C)c1` [Example 77, (2S,4R)-4-hydroxy-1-((S)-2-(3-(3-methoxyphenyl)propanamido)-3,3-dimethylbutanoyl)-N-(4-(4-methylthiazol-5-yl)benzyl)pyrrolidine-2-carboxamide], the IC50 reads like this: (1% in DMSO) 0.55 µM; (10% in DMSO) 0.349 µM.

`Cc1ncsc1-c1ccc(CNC(=O)[C@@H]2C[C@@H](O)CN2C(=O)[C@@H](NC(=O)c2ccccn2)C(C)(C)C)cc1` [Example 78, N—((S)-1-((2S,4R)-4-hydroxy-2-(4-(4-methylthiazol-5-yl)benzylcarbamoyl)pyrrolidin-1-yl)-3,3-dimethyl-1-oxobutan-2-yl)picolinamide] had a 50% inhibitory concentration (IC50) (1% in DMSO) of 1.03 µM and an IC50 (10% in DMSO) of 0.81 µM. For `CC(C)[C@@H](C(=O)N1C[C@](C)(O)C[C@H]1C(=O)O)N1Cc2ccccc2C1=O` [Example 79, (2S,4R)-4-hydroxy-4-methyl-1-[(2S)-3-methyl-2-(1-oxo-2,3-dihydro-1H-isoindol-2-yl)butanoyl]pyrrolidine-2-carboxylic acid], in that order: > 100 µM and > 100 µM. Turning to `Cc1cnccc1-c1ccc(CNC(=O)[C@@H]2C[C@@H](O)CN2C(=O)[C@H](C(C)C)N2Cc3ccccc3C2=O)cc1` [Example 80, (2S,4R)-4-hydroxy-1-((S)-3-methyl-2-(1-oxoisoindolin-2-yl)butanoyl)-N-(4-(3-methylpyridin-4-yl)benzyl)pyrrolidine-2-carboxamide], the IC50 (1% in DMSO) worked out at 22.4 µM and the IC50 (10% in DMSO) is 38.9 µM. On the same counts, the results for `COc1ccc(CNC(=O)[C@@H]2C[C@@H](O)CN2C(=O)[C@H](C(C)C)N2Cc3ccccc3C2=O)cc1` [Example 81, (2S,4R)-4-hydroxy-N-(4-methoxybenzyl)-1-((S)-3-methyl-2-(1-oxoisoindolin-2-yl)butanoyl)pyrrolidine-2-carboxamide] are > 49 µM and 371 µM.

With `Cc1ncsc1-c1ccc(CNC(=O)[C@@H]2C[C@@H](O)CN2C(=O)[C@H](C(C)C)N2Cc3ccccc3C2=O)c(F)c1` [Example 82, (2S,4R)—N-(2-fluoro-4-(4-methylthiazol-5-yl)benzyl)-4-hydroxy-1-((S)-3-methyl-2-(1-oxoisoindolin-2-yl)butanoyl)pyrrolidine-2-carboxamide], the IC50 reads like this: (1% in DMSO) 1.64 µM; (10% in DMSO) 1.58 µM. On the same counts, the results for `COc1ccccc1CCC(=O)N[C@H](C(=O)N1C[C@H](O)C[C@H]1C(=O)NCc1ccc(-c2scnc2C)cc1)C(C)(C)C` [Example 83, (2S,4R)-4-hydroxy-1-((S)-2-(3-(2-methoxyphenyl)propanamido)-3,3-dimethylbutanoyl)-N-(4-(4-methylthiazol-5-yl)benzyl)pyrrolidine-2-carboxamide] are 0.626 µM and 0.32 µM. On the same counts, the results for `Cc1ncsc1-c1ccc(CNC(=O)[C@@H]2C[C@@H](O)CN2C(=O)[C@@H](NC(=O)c2cccnc2)C(C)(C)C)cc1` [Example 84, N—((S)-1-((2S,4R)-4-hydroxy-2-(4-(4-methylthiazol-5-yl)benzylcarbamoyl)pyrrolidin-1-yl)-3,3-dimethyl-1-oxobutan-2-yl)nicotinamide] are 1.24 µM and 1.46 µM. On the same counts, the results for `CC(=O)NCC(=O)N1C[C@H](O)C[C@H]1C(=O)NCc1ccc(-c2scnc2C)cc1` [Example 86, (2S,4R)-1-(2-acetamidoacetyl)-4-hydroxy-N-(4-(4-methylthiazol-5-yl)benzyl)pyrrolidine-2-carboxamide] are 151 µM and 225 µM. As for `CC(=O)O[C@@H](C)C(=O)N1C[C@H](O)C[C@H]1C(=O)NCc1ccc(-c2scnc2C)cc1` [Example 87, (S)-1-((2S,4R)-4-hydroxy-2-(4-(4-methylthiazol-5-yl)benzylcarbamoyl)pyrrolidin-1-yl)-1-oxopropan-2-yl acetate], the IC50 amounted to 384 µM (1% in DMSO) and 263 µM (10% in DMSO). For the compound `COc1ccc(C(=O)N2C[C@H](O)C[C@H]2C(=O)NCc2ccc(-c3scnc3C)cc2)c(C)c1` [Example 88, (2S,4R)-4-hydroxy-1-(4-methoxy-2-methylbenzoyl)-N-(4-(4-methylthiazol-5-yl)benzyl)pyrrolidine-2-carboxamide], the 50% inhibitory concentration (IC50) amounted to 20.4 µM (1% in DMSO) and 39.2 µM (10% in DMSO). For `Cc1ncsc1-c1ccc(CNC(=O)[C@@H]2C[C@@H](O)CN2C(=O)C(N)C(F)(F)F)cc1` (stereo partly drawn) [Example 89, (2S,4R)-1-(2-amino-3,3,3-trifluoropropanoyl)-4-hydroxy-N-(4-(4-methylthiazol-5-yl)benzyl)pyrrolidine-2-carboxamide], in that order: 60.6 µM and 139 µM. Regarding `CC(=O)NC(C(=O)N1C[C@H](O)C[C@H]1C(=O)NCc1ccc(-c2scnc2C)cc1)C(F)(F)F` (stereo partly drawn) [Example 90, (2S,4R)-1-(2-acetamido-3,3,3-trifluoropropanoyl)-4-hydroxy-N-(4-(4-methylthiazol-5-yl)benzyl)pyrrolidine-2-carboxamide], the IC50 is 45.2 µM (1% in DMSO) and 47.9 µM (10% in DMSO). Take `CC(C)[C@@H](C(=O)N1C[C@H](O)C[C@H]1C(=O)NCc1ccc(N2CCOCC2)cc1)N1Cc2ccccc2C1=O` [Example 91, (2S,4R)-4-hydroxy-1-((S)-3-methyl-2-(1-oxoisoindolin-2-yl)butanoyl)-N-(4-morpholinobenzyl)pyrrolidine-2-carboxamide]: the half-maximal inhibitory concentration (IC50) (1% in DMSO) is > 100 µM. In the case of `CC(C)[C@@H](C(=O)N1C[C@H](O)C[C@H]1C(=O)NCc1ccc(-c2ccnn2C)cc1)N1Cc2ccccc2C1=O` [Example 92, (2S,4R)-4-hydroxy-N-(4-(1-methyl-1H-pyrazol-5-yl)benzyl)-1-((S)-3-methyl-2-(1-oxoisoindolin-2-yl)butanoyl)pyrrolidine-2-carboxamide], the IC50 (1% in DMSO) worked out at 1.65 µM.

Regarding `Cc1ncsc1-c1ccc(CNC(=O)[C@@H]2C[C@@H](O)CN2C(=O)[C@H](C(C)C)N2Cc3ccccc3C2=O)cc1F` [Example 93, (2S,4R)—N-(3-fluoro-4-(4-methylthiazol-5-yl)benzyl)-4-hydroxy-1-((S)-3-methyl-2-(1-oxoisoindolin-2-yl)butanoyl)pyrrolidine-2-carboxamide], the 50% inhibitory concentration (IC50) (1% in DMSO) turned out to be 1.2 µM. Still for that read-out and setting: the figure for `CC[C@H](C)[C@@H](C(=O)N1C[C@H](O)C[C@H]1C(=O)NCc1ccc(-c2scnc2C)cc1)N1Cc2ccc(F)cc2C1=O` [Example 94, (2S,4R)-1-((2S,3S)-2-(6-fluoro-1-oxoisoindolin-2-yl)-3-methylpentanoyl)-4-hydroxy-N-(4-(4-methylthiazol-5-yl)benzyl)pyrrolidine-2-carboxamide] is 0.566 µM. Same read-out and setting: the figure for `COc1ccc(C)c(C(=O)N2C[C@H](O)C[C@H]2C(=O)NCc2ccc(-c3scnc3C)cc2)c1` [Example 95, (2S,4R)-4-hydroxy-1-(5-methoxy-2-methylbenzoyl)-N-(4-(4-methylthiazol-5-yl)benzyl)pyrrolidine-2-carboxamide] is 23.4 µM. Same read-out and setting: under `CC(C)[C@@H](C(=O)N1C[C@H](O)C[C@H]1C(=O)NCc1ccc(-c2cncn2C)cc1)N1Cc2ccccc2C1=O` [Example 96, (2S,4R)-4-hydroxy-N-(4-(1-methyl-1H-imidazol-5-yl)benzyl)-1-((S)-3-methyl-2-(1-oxoisoindolin-2-yl)butanoyl)pyrrolidine-2-carboxamide] stands 35.4 µM; under `CC(C)[C@@H](C(=O)N1C[C@H](O)C[C@H]1C(=O)NCc1ccc(-c2cncs2)cc1)N1Cc2ccccc2C1=O` [Example 97, (2S,4R)-4-hydroxy-1-((S)-3-methyl-2-(1-oxoisoindolin-2-yl)butanoyl)-N-(4-(thiazol-5-yl)benzyl)pyrrolidine-2-carboxamide], 1.45 µM.
